The GI50 is the concentration that inhibits growth by half.

The nature of data set [1]: in vitro. It is filed as cell-based. As to the method:
The cytotoxicity of the peptides to HELA cells (Acc57) and COS-7 cells (CRL-1651) was determined using the MTT reduction assay (T. Mossman, J. Immunol. Meth. 1983, 65, 55-63; M. V. Berridge, A. S. Tan, Arch. Biochem. Biophys. 1993, 303, 474-482). Briefly, the method was as follows: 4000 HELA cells/well and 3400 COS-7 cells/well were seeded and grown in 96-well microtiter plates for 24 h at 37° C. at 5% CO2. Thereafter, time zero (Tz) was determined by MTT reduction (see below). The supernatant of the remaining wells was discarded, and fresh medium and compounds in serial dilutions (12.5, 25 and 50 μg/mL, triplicates) were pipetted into the wells. After incubation of the cells for 48 h at 37° C. at 5% CO2 the supernatant was discarded again and 100 μL MTT reagent (0.5 mg/mL in RPMI1640 and DMEM, respectively)/well was added. Following incubation at 37° C. for 2-4 h the media were aspirated and the cells were spiked (100 μL isopropanol/well). The absorbance of the solubilized formazan was measured at 595 nm (OD595peptide). For each concentration averages were calculated from triplicates. The percentage of growth was calculated as follows: (OD595peptide-OD595Tz-OD595Empty well)/(OD595Tz-OD595Empty well)×100%. The GI50 (Growth Inhibition) concentrations were calculated for each peptide by using a trend line function for the concentrations (50, 25, 12.5 and 0 μg/mL), the corresponding percentages and the value 50, (=TREND (C50:C0%50:%0,50).

Data set [2] deals with Shigella boydii DSM 7532. The following applies: Mueller-Hinton II broth + 0.02% BSA, 18-20 hours at 37° C. As to the method: […] colony forming units (CFU)/mL. Aliquots (50 μl) of inoculate were added to 50 μl of MH broth+0.02% BSA containing the peptide in serial two-fold dilutions. The following microorganisms were used to determine antibiotic selectivity of the peptides: Bacillus subtilis DSM 10 and Shigella boydii DSM 7532.

The test system of data set [3] is human red blood cells (hRBC). Type of data set: cell-based. The note with it: red cells of human, 1 h. As to the method: The peptides were tested for their hemolytic activity against human red blood cells (hRBC). Fresh hRBC were washed three times with phosphate buffered saline (PBS) and centrifuged for 10 min at 2000×g. Compounds (100 μg/mL) were incubated with 20% hRBC (v/v) for 1 h at 37° C. and shaking at 300 rpm. The final erythrocyte concentration was approximately 0.9×10^9 cells/mL. A value of 0% and 100% cell lyses, respectively, was determined by incubation of hRBC in the presence of PBS containing 0.001% acetic acid and 2.5% Triton X-100 in H2O, respectively. The samples were centrifuged, the supernatants were 8-fold diluted in PBS buffer and the optical densities (OD) were measured at 540 nm. The 100% lyses value (OD540H2O) gave an OD50 of approximately 0.5-1.0.
Percent hemolysis was calculated as follows: (OD540peptide/OD540H2O)×100%.

Peptide text beside a SMILES is read from it.

Regarding `CC[C@H](C)[C@@H]1NC(=O)[C@H](CCCNC(=N)N)NC(=O)[C@H](Cc2c[nH]c3ccccc23)NC(=O)[C@@H]2CCCN2C(=O)[C@H]2CCCN2C(=O)[C@H](C)NC(=O)[C@H](CCC(N)=O)NC(=O)[C@H](CC(C)C)NC(=O)[C@H](CCCNC(=N)N)NC(=O)[C@H](CCC(N)=O)NC(=O)[C@H](Cc2ccc(O)cc2)NC(=O)[C@@H](CCCNC(=N)N)NC(=O)[C@H]([C@@H](C)CC)NC(=O)[C@H](CCCNC(=N)N)NC1=O` [Example 14] (HELM PEPTIDE1{W.R.I.R.I.[dR].Y.Q.R.L.Q.A.[dP].P}$PEPTIDE1,PEPTIDE1,1:R1-14:R2$$$V2.0), the GI50 at 48 h in data set [1] (African green monkey) and in data set [1] (human) was greater than 50 µg/mL each time. Also, the “Shigella boydii DSM 7532 MIC” value in data set [2] is 16 µg/mL. Also, in data set [3], the “Hemolysis at 100 μg/mL” value turned out to be 0.0%.

In the case of `CC[C@H](C)[C@@H]1NC(=O)[C@H](CCCNC(=N)N)NC(=O)[C@H](Cc2c[nH]c3ccccc23)NC(=O)[C@@H]2CCCN2C(=O)[C@H]2CCCN2C(=O)[C@H](C)NC(=O)[C@H](CCC(N)=O)NC(=O)[C@H](Cc2ccc(O)cc2)NC(=O)[C@H](CCCNC(=N)N)NC(=O)[C@H](CCC(N)=O)NC(=O)[C@H](CC(N)=O)NC(=O)[C@@H](CCCNC(=N)N)NC(=O)[C@H]([C@@H](C)CC)NC(=O)[C@H](CCCNC(=N)N)NC1=O` [Example 15] (HELM PEPTIDE1{W.R.I.R.I.[dR].N.Q.R.Y.Q.A.[dP].P}$PEPTIDE1,PEPTIDE1,1:R1-14:R2$$$V2.0), the concentration for 50% growth inhibition (GI50) at 48 h in data set [1] (African green monkey) and in data set [1] (human) was greater than 50 µg/mL in each case. In data set [2], the “Shigella boydii DSM 7532 MIC” value was found to be 16 µg/mL. Further, the “Hemolysis at 100 μg/mL” value in data set [3] came out at 0.0%.

On to `CC[C@H](C)[C@@H]1NC(=O)[C@H](CCCNC(=N)N)NC(=O)[C@H](Cc2c[nH]c3ccccc23)NC(=O)[C@@H]2CCCN2C(=O)[C@H]2CCCN2C(=O)[C@H](C)NC(=O)[C@H](CCC(N)=O)NC(=O)[C@H](CC2CCCCC2)NC(=O)[C@H](CCCNC(=N)N)NC(=O)[C@H](CCC(N)=O)NC(=O)[C@H](CC(N)=O)NC(=O)[C@@H](CCCNC(=N)N)NC(=O)[C@H]([C@@H](C)CC)NC(=O)[C@H](CCCNC(=N)N)NC1=O` [Example 4] (HELM PEPTIDE1{W.R.I.R.I.[dR].N.Q.R.[Cha].Q.A.[dP].P}$PEPTIDE1,PEPTIDE1,1:R1-14:R2$$$V2.0), for which the GI50 at 48 h in data set [1] (African green monkey) and in data set [1] (human) was greater than 50 µg/mL in each case. Moreover, the “Shigella boydii DSM 7532 MIC” value in data set [2] was greater than 16 µg/mL. Also, the “Hemolysis at 100 μg/mL” value in data set [3] came to 0.8%.

`CC[C@H](C)[C@@H]1NC(=O)[C@H](CCCNC(=N)N)NC(=O)[C@H](Cc2c[nH]c3ccccc23)NC(=O)[C@@H]2CCCN2C(=O)[C@H]2CCCN2C(=O)[C@H](CCC(N)=O)NC(=O)[C@H](CCCNC(=N)N)NC(=O)[C@H](CC(C)C)NC(=O)[C@H](CCCNC(=N)N)NC(=O)[C@H](CCCCN)NC(=O)[C@H](CC(N)=O)NC(=O)[C@@H](CCCNC(=N)N)NC(=O)[C@H]([C@@H](C)CC)NC(=O)[C@H](CCCNC(=N)N)NC1=O` [Example 2] (HELM PEPTIDE1{W.R.I.R.I.[dR].N.K.R.L.R.Q.[dP].P}$PEPTIDE1,PEPTIDE1,1:R1-14:R2$$$V2.0): the GI50 at 48 h in data set [1] (African green monkey) and in data set [1] (human) was greater than 50 µg/mL throughout. Also, the “Shigella boydii DSM 7532 MIC” value in data set [2] was found to be 4 µg/mL. Moreover, in data set [3], the “Hemolysis at 100 μg/mL” value stood at 0.0%.

As for `CC[C@H](C)[C@@H]1NC(=O)[C@H](CCCNC(=N)N)NC(=O)[C@H](Cc2c[nH]c3ccccc23)NC(=O)[C@@H]2CCCN2C(=O)[C@H]2CCCN2C(=O)[C@H](C)NC(=O)[C@H](CCC(N)=O)NC(=O)[C@H](CC(C)C)NC(=O)[C@H](CCCNC(=N)N)NC(=O)[C@H](CCC(N)=O)NC(=O)[C@H](CC(C)C)NC(=O)[C@@H](CCCNC(=N)N)NC(=O)[C@H]([C@@H](C)CC)NC(=O)[C@H](CCCNC(=N)N)NC1=O` [Example 13] (HELM PEPTIDE1{W.R.I.R.I.[dR].L.Q.R.L.Q.A.[dP].P}$PEPTIDE1,PEPTIDE1,1:R1-14:R2$$$V2.0), the GI50 at 48 h in data set [1] (African green monkey) and in data set [1] (human) was greater than 50 µg/mL throughout. The “Shigella boydii DSM 7532 MIC” value in data set [2] is 16 µg/mL. In data set [3], the “Hemolysis at 100 μg/mL” value worked out at 0.0%.

Source of the values: patent publication US8895499B2, “β-hairpin peptidomimetics” (Polyphor AG, priority 2010, dated 2014).
